{
  "source": "paper PMC7703437",
  "about": "“In Vitro Hepatic Metabolism of Curcumin Diethyl Disuccinate by Liver S9 from Different Animal Species” (Frontiers in Pharmacology, 2020)",
  "key": {"DLS9": {"test_system": "DLS9", "experiment": "CDD depletion in DLS9 0.02 mg/ml (optimisation of incubation condition)", "type": "in vitro ADME, dog", "settings": "CDD 3 μM", "method": "(§1) The metabolism profiles of CDD and curcumin formation profile were investigated against HLS9, MLS9, DLS9 and RLS9. A stock solution of CDD was prepared at 150 µM in 50% acetonitrile in water before use. The metabolism study was initiated by spiking a 588 µl pre-incubated LS9 with 12 µl CDD stock solution, and subsequently incubated at 37°C. The final concentrations of CDD and LS9 were 3 µM and 0.02 mg/ml, respectively. A 50 µl aliquot from the mixture was collected at 0.5, 1, 2, 3, 4, 5, 10, 15, 30, 45 and 60 min and was immediately mixed with 100 µl of ice-cold acetonitrile containing 0.45 µM of internal standard DMC to terminate the metabolic reaction. […] Samples of 120 µl of supernatant wee diluted with 40 µl of water prior to UHPLC analysis (Agilent series 1290, Agilent Technology, USA) by means of protocol outlined in Materials and Methods:“In vitro Metabolism Profiling of Curcumin Diethyl Disuccinate”. The sample at 0 min was prepared as other samples except that heat-inactivated HLS9, MLS9, DLS9 and RLS9 (80°C for 20 min; 1 mg/ml protein) were used. Duplicates were conducted for each experiment.\n(§2) The peak area ratios of CDD and curcumin to internal standard in the supernatant were determined. The percent contents of CDD and curcumin were plotted against incubation time. The depletion of CDD was calculated with reference to the initial concentration. The saturated substrate was defined as % depletion less than 30."}, "[1]": {"design": "method as in Muangnoi et al., 2019b", "settings": "ref Muangnoi et al., 2019b; cited from earlier work"}, "[2]": {"test_system": "LS9 from all tested species (HLS9, MLS9, DLS9, RLS9)", "experiment": "In vitro metabolism profiling of CDD, statements for LS9 from all tested species", "type": "in vitro ADME, human, monkey, dog, rat", "settings": "within the first 15 min of incubation, LS9 1 mg/ml from all tested species, CDD 3 µM", "method": "(§3) The metabolism profiles of CDD were investigated against HLS9, MLS9, DLS9, and RLS9. A stock solution of CDD was prepared at 150 µM in 50% acetonitrile in water before use. The metabolism study was initiated by spiking 735 µl of preincubated LS9 with 15 µl of CDD stock solution, and the mixture was subsequently incubated at 37°C. The final concentrations of CDD and LS9 were 3 μM and 1 mg/ml, respectively. A 50-µl aliquot from the mixture was collected at 0.5, 1, 2, 3, 4, 5, 10, 15, 30, 45, 60, 90, and 120 min and immediately mixed with 100 µl of ice-cold acetonitrile containing 0.45 µM of internal standard DMC to terminate the metabolic reaction. […] The sample at the initial time point (0 min) was prepared as the other samples, except that heat-inactivated HLS9, MLS9, DLS9, and RLS9 (80°C for 20 min; 1 mg/ml protein) were used.\n(§4) The UHPLC system consisted of an Agilent series 1290 quaternary pump with an online degasser, autosampler, column oven, and diode array detector. The mobile phase was composed of (A) 0.1% (v/v) formic acid in acetonitrile and (B) 0.1% (v/v) formic acid in water. Each solution was filtered through a nylon filter (pore size, 0.22 µm; MS® Membrane Filters; Membrane Solutions, United States) before use. The mobile phase flow rate was kept at 1.2 ml/min in a gradient mode using the following elution program: 0–3.0 min, initial A-B (40:60, v/v); 4.5–7.0 min, isocratic elution A-B [50:50, (v/v); 8.5–11.0 min, isocratic elution A-B (60:40, v/v); and 12.0–17.0 min, isocratic elution A-B (40:60, v/v)]. CDD, curcumin, and MSCUR in the supernatant were partitioned using a C8 column (4.6 mm × 50 mm, 2.7 µm; HALO, Advanced Materials Technology, United States) with reference to DMC. The detection wavelength was set at 400 nm (λ max(CDD) = 400 nm, λ max(curcumin) = 427 nm, λ max(MSCUR) = 418 nm, and λ max(DMC) = 421 nm). The column was maintained at 35°C throughout the run, and the supernatant injection volume was set at 20 µl.\n(§5) The concentrations of CDD, curcumin, and MSCUR in the supernatant were determined from the standard plots, which were prepared by spiking individual working solutions of the compounds to heat-inactivated HLS9, MLS9, DLS9, and RLS9 ([Alcorn et al., 2007]; [Montoro-Garcia et al., 2009]; [Singh et al., 2010]). […]\n(§6) The following equations were adopted to describe the changes in CDD and MSCUR content over time (t): A = A0e^−k1t (2) B= k1A0/k2−k1(e^−k1t−e^−k2t), (3) where A0 is the CDD concentration at time 0, k 1 is the degradation rate constant of CDD, and k 2 is the degradation rate constant of MSCUR. k 1 and k 2 were determined by using Eqs. […] The half-life (t 1/2) was calculated using Eq. 4: t1/2=0.693/k (4)"}, "[3]": {"experiment": "In vitro metabolism profiling of CDD, statements for LS9 from all tested species", "type": "in vitro ADME, human, monkey, dog, rat", "settings": "beagle (dog); Sprague-Dawley (rat), human, monkey, dog, rat, liver S9 (LS9); all LS9s; read-out: t 1/2 of CDD", "method": "as §3, §4, §5, §6"}, "HLS9": {"test_system": "HLS9", "experiment": "CDD depletion in HLS9 0.02 mg/ml (optimisation of incubation condition)", "type": "in vitro ADME, human", "settings": "CDD 3 μM", "method": "as §1, §2"}},
  "note": "Where “and” joins values, the source holds several entries; their conditions need not be identical. Equal values may be shown once.",
  "data": [
    {"smiles": "CCOC(=O)CCC(=O)Oc1ccc(/C=C/C(=O)/C=C(O)/C=C/c2ccc(OC(=O)CCC(=O)OCC)c(OC)c2)cc1OC", "note": "[CDD, curcumin diethyl disuccinate]", "values": [
      {"measurement": "% CDD remaining", "setting": "DLS9; 0.5 min", "value": 76.77, "unit": "%"},
      {"measurement": "%Depletion of CDD", "setting": "DLS9; 0.5 min (selected incubation time)", "value": "23% and 23.23%"},
      {"measurement": "% CDD remaining", "setting": "DLS9; 1 min", "value": 66.99, "unit": "%"},
      {"measurement": "%Depletion of CDD", "setting": "DLS9; 1 min", "value": 33.01, "unit": "%"},
      {"measurement": "% CDD remaining", "setting": "DLS9; 2 min", "value": 49.79, "unit": "%"},
      {"measurement": "%Depletion of CDD", "setting": "DLS9; 2 min", "value": 50.21, "unit": "%"},
      {"measurement": "% CDD remaining", "setting": "DLS9; 3 min", "value": 42.26, "unit": "%"},
      {"measurement": "%Depletion of CDD", "setting": "DLS9; 3 min", "value": 57.74, "unit": "%"},
      {"measurement": "% CDD remaining", "setting": "DLS9; 4 min", "value": 31.30, "unit": "%"},
      {"measurement": "%Depletion of CDD", "setting": "DLS9; 4 min", "value": 68.70, "unit": "%"},
      {"measurement": "% CDD remaining", "setting": "DLS9; 5 min", "value": 25.06, "unit": "%"},
      {"measurement": "%Depletion of CDD", "setting": "DLS9; 5 min", "value": 74.94, "unit": "%"},
      {"measurement": "log P", "setting": "[1]", "value": 2.55},
      {"measurement": "CDD hydrolyzed", "setting": "[2]", "value": "more than 95%"},
      {"measurement": "half-life at 3 µM", "setting": "[3]", "value": "< 1.04", "unit": "min"},
      {"measurement": "% CDD remaining", "setting": "HLS9; 0.5 min", "value": 82.88, "unit": "%"},
      {"measurement": "%Depletion of CDD", "setting": "HLS9; 0.5 min", "value": 17.12, "unit": "%"},
      {"measurement": "% CDD remaining", "setting": "HLS9; 1 min", "value": 80.95, "unit": "%"},
      {"measurement": "%Depletion of CDD", "setting": "HLS9; 1 min (selected incubation time)", "value": "19% and 19.05%"},
      {"measurement": "% CDD remaining", "setting": "HLS9; 2 min", "value": 68.18, "unit": "%"},
      {"measurement": "%Depletion of CDD", "setting": "HLS9; 2 min", "value": 31.82, "unit": "%"},
      {"measurement": "% CDD remaining", "setting": "HLS9; 3 min", "value": 57.46, "unit": "%"},
      {"measurement": "%Depletion of CDD", "setting": "HLS9; 3 min", "value": 42.54, "unit": "%"},
      {"measurement": "% CDD remaining", "setting": "HLS9; 4 min", "value": 43.15, "unit": "%"},
      {"measurement": "%Depletion of CDD", "setting": "HLS9; 4 min", "value": 56.85, "unit": "%"},
      {"measurement": "% CDD remaining", "setting": "HLS9; 5 min", "value": 36.37, "unit": "%"},
      {"measurement": "%Depletion of CDD", "setting": "HLS9; 5 min", "value": 63.63, "unit": "%"}
    ]}
  ]
}
